In the NIST ThermoML archive (doi:10.1021/je900436f):
± gives the expanded uncertainty stated by the source. Each block holds one molecule with its values, some of them ahead of it.

Details: 298.15 K, Liquid

SMILES: CCCCCl [1-chlorobutane]
mass density (13.52 kPa): 880.805 ± 0.6 kg/m3

mass density (1.535 kPa): 797.775 ± 0.6 kg/m3
SMILES: CC(C)CO [2-methyl-1-propanol]

mass density (5.605 kPa): 780.885 ± 0.75 kg/m3
SMILES: CC(C)(C)O [2-methylpropan-2-ol]

mass density (20.22 kPa): 654.96 ± 1.4 kg/m3
SMILES: CCCCCC [hexane]
